In patent US9475817B2 (BRISTOL-MYERS SQUIBB COMPANY, priority 2012, dated 2016) one finds IC50 data, which are given here for 25 compounds.

One experiment addresses CK1ε (Homo sapiens (Human), UniProt P49674). The experiment can be described thus: CK1ε kinase assay (Caliper LabChip, fluoresceinated peptide substrate). Type of experiment: biochemical. The following applies: 200 pM CK1ε, 50 μM ATP, 1.5 μM peptide substrate, 22 hours room temperature. The protocol:
(§1) CK1ε and CK1δ Kinase Assays
(§2) The kinase assay was performed in V-bottom 384-well plates. […] The reaction was incubated at room temperature for 22 hours and terminated by adding 45 μl of 35 mM EDTA to each sample. […] Compounds were dissolved at 10 mM in dimethylsulfoxide (DMSO) and evaluated at eleven concentrations. IC50 values were derived by non-linear regression analysis.

Another experiment addresses CK1δ (Homo sapiens (Human), UniProt P48730). The experiment can be described thus: CK1δ kinase assay (Caliper LabChip, fluoresceinated peptide substrate). It is filed as biochemical. The note with it: 200 pM CK1δ, 50 μM ATP, 1.5 μM peptide substrate, 22 hours room temperature. On the procedure: as §1, §2

CK1δ, sequence (P48730 whole entry): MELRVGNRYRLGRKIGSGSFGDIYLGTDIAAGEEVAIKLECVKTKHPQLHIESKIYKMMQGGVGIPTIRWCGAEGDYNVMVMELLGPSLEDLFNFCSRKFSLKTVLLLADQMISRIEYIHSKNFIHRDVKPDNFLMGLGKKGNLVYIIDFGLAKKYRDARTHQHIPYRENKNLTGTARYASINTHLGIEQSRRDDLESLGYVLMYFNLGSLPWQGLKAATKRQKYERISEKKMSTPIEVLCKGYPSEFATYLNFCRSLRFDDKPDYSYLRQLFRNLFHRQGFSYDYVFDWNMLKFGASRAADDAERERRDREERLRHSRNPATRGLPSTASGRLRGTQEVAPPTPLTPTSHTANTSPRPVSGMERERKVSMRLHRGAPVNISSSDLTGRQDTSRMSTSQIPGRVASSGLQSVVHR
CK1ε, sequence (P49674 whole entry): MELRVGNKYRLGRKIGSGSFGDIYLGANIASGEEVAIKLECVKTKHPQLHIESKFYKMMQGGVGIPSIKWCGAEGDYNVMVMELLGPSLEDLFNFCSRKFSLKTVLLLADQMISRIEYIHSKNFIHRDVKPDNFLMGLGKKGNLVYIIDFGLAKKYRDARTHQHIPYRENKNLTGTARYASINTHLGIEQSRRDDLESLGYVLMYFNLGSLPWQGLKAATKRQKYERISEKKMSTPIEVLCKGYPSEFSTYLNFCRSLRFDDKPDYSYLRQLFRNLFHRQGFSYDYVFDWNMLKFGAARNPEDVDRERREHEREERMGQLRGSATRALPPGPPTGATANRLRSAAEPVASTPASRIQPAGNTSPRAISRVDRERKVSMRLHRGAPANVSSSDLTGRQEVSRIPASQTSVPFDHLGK

On to `CN1CCC(c2c(-c3ccc4nc(NC(=O)c5ccncc5)cn4n3)c(-c3ccc(F)cc3)nn2C)CC1` [Compound 165, N-(6-(3-(4-Fluorophenyl)-1-methyl-5-(1-methylpiperidin-4-yl)-1H-pyrazol-4-yl)imidazo[1,2-b]pyridazin-2-yl)isonicotinamide], for which the IC50 (as a rule, the midpoint of a concentration-inhibition curve) at CK1ε worked out at 5 nM; against CK1δ, 2.7 nM.
Regarding `Cn1cc(-c2ccc3nc(NC(=O)c4ccc(OC(F)F)cc4F)cn3n2)c(-c2ccc(F)cc2)n1` [Compound 58, 4-(difluoromethoxy)-2-fluoro-N-(6-(3-(4-fluorophenyl)-1-methyl-1H-pyrazol-4-yl)imidazo[1,2-b]pyridazin-2-yl)benzamide], the IC50 was 40.9 nM against CK1ε and 6.9 nM at CK1δ.
Consider `Cc1nc(-c2ccncc2)sc1C(=O)Nc1cn2nc(-c3c(-c4ccc(F)cc4)nn(C)c3C3CCN(C)CC3)ccc2n1` [Compound 180, N-(6-(3-(4-Fluorophenyl)-1-methyl-5-(1-methylpiperidin-4-yl)-1H-pyrazol-4-yl)imidazo[1,2-b]pyridazin-2-yl)-4-methyl-2-(pyridin-4-yl)thiazole-5-carboxamide], for which the half-inhibitory concentration (IC50) at CK1ε came to 7.1 nM; on CK1δ, 2.1 nM.
In the same order, the values of `Cn1cc(-c2ccc3nc(NC(=O)c4cc(C#N)ccc4F)cn3n2)c(-c2ccc(F)cc2)n1` [Compound 55, 5-cyano-2-fluoro-N-(6-(3-(4-fluorophenyl)-1-methyl-1H-pyrazol-4-yl)imidazo[1,2-b]pyridazin-2-yl)benzamide] are 12.1 nM and 4.1 nM.
In the case of `O=C(Nc1cn2nc(-c3cn(C4CC4)nc3-c3ccc(F)cc3)ccc2n1)c1cc(F)nc(F)c1` [Compound 105, N-(6-(1-cyclopropyl-3-(4-fluorophenyl)-1H-pyrazol-4-yl)imidazo[1,2-b]pyridazin-2-yl)-2,6-difluoroisonicotinamide], the values for the IC50 at CK1ε and against CK1δ were 46.5 nM and 4.8 nM, respectively.
For `Cn1nc(-c2ccc(F)cc2)c(-c2ccc3nc(NC(=O)c4ccnc(F)c4)cn3n2)c1C1CCN(C[C@@H](O)C(F)(F)F)CC1` [Compound 158, (R)-2-Fluoro-N-(6-(3-(4-fluorophenyl)-1-methyl-5-(1-(3,3,3-trifluoro-2-hydroxypropyl)piperidin-4-yl)-1H-pyrazol-4-yl)imidazo[1,2-b]pyridazin-2-yl)isonicotinamide] the same measures were 0.3 nM and 0.2 nM.
For the compound `Cn1nc(-c2ccc(F)cc2)c(-c2ccc3nc(NC(=O)c4ccnc(F)c4)cn3n2)c1C1CCN(CCC#N)CC1` [Compound 156, N-(6-(5-(1-(2-Cyanoethyl)piperidin-4-yl)-3-(4-fluorophenyl)-1-methyl-1H-pyrazol-4-yl)imidazo[1,2-b]pyridazin-2-yl)-2-fluoroisonicotinamide], the IC50 at CK1ε came to 2.6 nM; against CK1δ, 0.4 nM.
With `Cc1nc(-c2cccnc2)sc1C(=O)Nc1cn2nc(-c3c(-c4ccc(F)cc4)nn(C)c3C3CCN(CC(N)=O)CC3)ccc2n1` [Compound 178, N-(6-(5-(1-(2-Amino-2-oxoethyl)piperidin-4-yl)-3-(4-fluorophenyl)-1-methyl-1H-pyrazol-4-yl)imidazo[1,2-b]pyridazin-2-yl)-4-methyl-2-(pyridin-3-yl)thiazole-5-carboxamide], the half-inhibitory concentration (IC50) against CK1ε came out at 1.3 nM; on CK1δ it was 0.2 nM.
On to `Cn1cc(-c2ccc3nc(NC(=O)c4ccccc4)cn3n2)c(-c2ccc(F)cc2)n1` [Compound 81, N-(6-(3-(4-fluorophenyl)-1-methyl-1H-pyrazol-4-yl)imidazo[1,2-b]pyridazin-2-yl)benzamide], for which the results for the IC50 at CK1ε and against CK1δ were 5.6 nM and 5.4 nM, respectively.
In the case of `Cn1cc(-c2ccc3nc(NC(=O)C4CCOCC4)cn3n2)c(-c2ccc(F)cc2)n1` [Compound 40, N-(6-(3-(4-fluorophenyl)-1-methyl-1H-pyrazol-4-yl)imidazo[1,2-b]pyridazin-2-yl)tetrahydro-2H-pyran-4-carboxamide], the IC50 on CK1ε stood at 18 nM; at CK1δ, 5.4 nM.
On to `Cn1nc(-c2ccc(F)cc2)c(-c2ccc3nc(NC(=O)c4ccncc4)cn3n2)c1C1CCN(Cc2ccon2)CC1` [Compound 169, N-(6-(3-(4-fluorophenyl)-5-(1-(isoxazol-3-ylmethyl)piperidin-4-yl)-1-methyl-1H-pyrazol-4-yl)imidazo[1,2-b]pyridazin-2-yl)isonicotinamide], for which the IC50 on CK1ε was determined as 0.8 nM; at CK1δ, 1.4 nM.
As to `Cn1cc(-c2ccc3nc(NC(=O)c4cccc(F)c4)cn3n2)c(-c2ccc(F)cc2)n1` [Compound 23, 3-fluoro-N-(6-(3-(4-fluorophenyl)-1-methyl-1H-pyrazol-4-yl)imidazo[1,2-b]pyridazin-2-yl)benzamide], the figures for the IC50 against CK1ε and against CK1δ were 8.6 nM and 2.6 nM, respectively.
In the same order, the values of `Cn1nc(-c2ccc(F)cc2)c(-c2ccc3nc(NC(=O)c4ccnc(N5CCOCC5)c4)cn3n2)c1C1CCN(CCCF)CC1` [Compound 162, N-(6-(3-(4-Fluorophenyl)-5-(1-(3-fluoropropyl)piperidin-4-yl)-1-methyl-1H-pyrazol-4-yl)imidazo[1,2-b]pyridazin-2-yl)-2-morpholinoisonicotinamide] are 17.5 nM and 0.5 nM.
Regarding `Cc1nc(-c2ccncc2)sc1C(=O)Nc1cn2nc(-c3c(-c4ccc(F)cc4)nn(C)c3N3CCOCC3)ccc2n1` [Compound 147, N-(6-(3-(4-fluorophenyl)-1-methyl-5-morpholino-1H-pyrazol-4-yl)imidazo [1,2-b]pyridazin-2-yl)-4-methyl-2-(pyridin-4-yl)thiazole-5-carboxamide], the IC50 on CK1ε was determined as 7.9 nM; against CK1δ it was 0.7 nM.
Turning to `Cc1nc(-c2cccnc2)sc1C(=O)Nc1cn2nc(-c3c(-c4ccc(F)cc4)nn(C)c3N3CCOCC3)ccc2n1` [Compound 146, N-(6-(3-(4-fluorophenyl)-1-methyl-5-morpholino-1H-pyrazol-4-yl)imidazo [1,2-b]pyridazin-2-yl)-4-methyl-2-(pyridin-3-yl)thiazole-5-carboxamide], the results for the IC50 against CK1ε and against CK1δ were 4.9 nM and 0.5 nM, respectively.
For `Cn1nc(-c2ccc(F)cc2)c(-c2ccc3nc(NC(=O)c4ccnc(F)c4)cn3n2)c1N1CCNCC1` [Compound 113, 2-fluoro-N-(6-(3-(4-fluorophenyl)-1-methyl-5-(piperazin-1-yl)-1H-pyrazol-4-yl)imidazo[1,2-b]pyridazin-2-yl)isonicotinamide], the IC50 came to 2.3 nM against CK1ε and 0.6 nM against CK1δ.
For `Cn1cc(-c2ccc3nc(NC(=O)c4cncs4)cn3n2)c(-c2ccc(F)cc2)n1` [Compound 28, N-(6-(3-(4-fluorophenyl)-1-methyl-1H-pyrazol-4-yl)imidazo[1,2-b]pyridazin-2-yl) thiazole-5-carboxamide], the IC50 at CK1ε turned out to be 6.6 nM; at CK1δ, 3.1 nM.
For `Cn1cc(-c2ccc3nc(NC(=O)c4ccccc4)c(Br)n3n2)c(-c2ccc(F)cc2)n1` [Compound 189, N-(3-Bromo-6-(3-(4-fluorophenyl)-1-methyl-1H-pyrazol-4-yl)imidazo[1,2-b]pyridazin-2-yl)benzamide], the IC50 against CK1ε turned out to be 257 nM; against CK1δ it was 38.8 nM.
On to `Cc1nc(-c2ccccn2)sc1C(=O)Nc1cn2nc(-c3cn(C)nc3-c3ccc(F)cc3)ccc2n1` [Compound 6, N-(6-(3-(4-fluorophenyl)-1-methyl-1H-pyrazol-4-yl)imidazo[1,2-b]pyridazin-2-yl)-4-methyl-2-(pyridin-2-yl)thiazol-5-carboxamide], for which the half-inhibitory concentration (IC50) against CK1ε was 17.3 nM; on CK1δ, 4.3 nM.
Take `Cn1nc(-c2ccc(F)cc2)c(-c2ccc3nc(NC(=O)c4ccncc4)cn3n2)c1C1CCN(CCO)CC1` [Compound 168, N-(6-(3-(4-fluorophenyl)-5-(1-(2-hydroxyethyl)piperidin-4-yl)-1-methyl-1H-pyrazol-4-yl)imidazo[1,2-b]pyridazin-2-yl)isonicotinamide]: the IC50 worked out at 1.5 nM at CK1ε and 1.3 nM against CK1δ.
In the case of `Cn1cc(-c2ccc3nc(NC(=O)c4ccncc4)cn3n2)c(-c2ccc(F)cc2)n1` [Compound 1, N-(6-(3-(4-Fluorophenyl)-1-methyl-1H-pyrazol-4-yl)imidazo[1,2-b]pyridazin-2-yl)isonicotinamide], the IC50 turned out to be 7.4 nM against CK1ε and 5.2 nM against CK1δ.
For `Cn1nc(-c2ccc(F)cc2)c(-c2ccc3nc(NC(=O)c4ccnc(F)c4)cn3n2)c1C1CCN(CC(N)=O)CC1` [Compound 157, N-(6-(5-(1-(2-Amino-2-oxoethyl)piperidin-4-yl)-3-(4-fluorophenyl)-1-methyl-1H-pyrazol-4-yl)imidazo[1,2-b]pyridazin-2-yl)-2-fluoroisonicotinamide] the same measures were 1.3 nM and 0.3 nM.
In the same order, the values of `Cn1cc(-c2ccc3nc(NC(=O)c4ccc(CCN5CCCC5)nc4)cn3n2)c(-c2ccc(F)cc2)n1` [Compound 72, N-(6-(3-(4-fluorophenyl)-1-methyl-1H-pyrazol-4-yl)imidazo[1,2-b]pyridazin-2-yl)-6-(2-(pyrrolidin-1-yl)ethyl)nicotinamide] are 27.8 nM and 10 nM.
With `Cn1nc(-c2ccc(F)cc2)c(-c2ccc3nc(NC(=O)c4ccnc(F)c4)cn3n2)c1C1CCN(C[C@H](O)C(F)(F)F)CC1` [Compound 159, (S)-2-Fluoro-N-(6-(3-(4-fluorophenyl)-1-methyl-5-(1-(3,3,3-trifluoro-2-hydroxypropyl)piperidin-4-yl)-1H-pyrazol-4-yl)imidazo[1,2-b]pyridazin-2-yl)isonicotinamide], the results for the IC50 on CK1ε and against CK1δ were 1.4 nM and 0.4 nM, respectively.
With `Cn1cc(-c2ccc3nc(NC(=O)c4ccno4)cn3n2)c(-c2ccc(F)cc2)n1` [Compound 22, N-(6-(3-(4-fluorophenyl)-1-methyl-1H-pyrazol-4-yl)imidazo[1,2-b]pyridazin-2-yl)isoxazole-5-carboxamide], the half-inhibitory concentration (IC50) against CK1ε worked out at 15.2 nM; at CK1δ, 3.7 nM.
